Experimental data published in patent US20070021419A1, “2-Aminophenyl-4-phenylpyrimidines as kinase inhibitors” (Cyclacel Limited, priority 2003, published 2007).

Key:
HT29 = test: 72-h MTT cytotoxicity assay, HT29; format: cell-based; conditions: Homo sapiens, HT-29, read-out: 72-h MTT IC50 HT29, HT29 cell line
Procedure, shortened: (§1)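 The read-out is MTT reduction: 4 h dark incubation with MTT from a 5 mg/mL stock, then dye solubilised in DMSO. This followed 72 h at 37° C exposure to a 1/3 dilution series of compound in triplicate. Wells were seeded according to doubling time and rested overnight before dosing.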

CDK2/cyclin E = CDK2/cyclin E (Homo sapiens, UniProt P24941); test: Kinase assay, radioactive phosphate incorporation, CDK2/cyclin E; format: biochemical; conditions: 100 μM ATP, 30° C.; read-out: Kinase inhibition IC50 CDK2/cyclin E
Procedure, shortened: (§2)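 Recombinant kinase complexes (2-4 μg active enzyme) were incubated at 30° C with polypeptide substrates in buffer of 25 mM β-glycerophosphate, 20 mM MOPS, 5 mM EGTA, 1 mM DTT, 1 mM […], pH 7.4. Reactions began with 15 mM MgCl2 plus 100 μM ATP spiked with [γ-32P]-ATP. Substrate-incorporated radioactivity was counted after filter capture.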

CDK1/cyclin B = CDK1/cyclin B (Homo sapiens, UniProt P06493); test: Kinase assay, radioactive phosphate incorporation, CDK1/cyclin B; format: biochemical; conditions: 100 μM ATP, 30° C.; read-out: Kinase inhibition IC50 CDK1/cyclin B
Chain of CDK1/cyclin B (P06493 whole entry, species assumed): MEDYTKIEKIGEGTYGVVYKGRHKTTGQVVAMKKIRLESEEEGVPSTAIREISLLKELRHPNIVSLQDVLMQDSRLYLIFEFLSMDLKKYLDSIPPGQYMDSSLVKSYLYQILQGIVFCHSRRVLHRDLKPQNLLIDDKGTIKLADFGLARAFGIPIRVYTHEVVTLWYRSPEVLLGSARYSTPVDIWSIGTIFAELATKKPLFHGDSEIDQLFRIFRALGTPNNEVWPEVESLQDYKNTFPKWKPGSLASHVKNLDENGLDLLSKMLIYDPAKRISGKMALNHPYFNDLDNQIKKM
Chain of CDK1/cyclin B (P14635 whole entry partner, species assumed): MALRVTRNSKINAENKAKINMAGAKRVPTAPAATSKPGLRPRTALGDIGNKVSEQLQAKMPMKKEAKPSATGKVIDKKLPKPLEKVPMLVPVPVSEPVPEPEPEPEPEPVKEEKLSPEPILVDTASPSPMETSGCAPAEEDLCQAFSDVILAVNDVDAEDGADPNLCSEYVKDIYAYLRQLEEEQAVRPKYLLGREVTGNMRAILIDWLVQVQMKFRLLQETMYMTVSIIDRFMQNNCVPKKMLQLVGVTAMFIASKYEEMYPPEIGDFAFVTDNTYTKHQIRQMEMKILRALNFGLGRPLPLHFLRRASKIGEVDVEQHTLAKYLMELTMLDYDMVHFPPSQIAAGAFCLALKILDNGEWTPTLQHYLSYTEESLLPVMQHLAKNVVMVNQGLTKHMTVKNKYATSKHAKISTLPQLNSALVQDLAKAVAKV
Procedure: (§3) The compounds from the examples above were investigated for their ability to inhibit the enzymatic activity of various protein kinases. This was achieved by measurement of incorporation of radioactive phosphate from ATP into appropriate polypeptide substrates. Recombinant protein kinases and kinase complexes were produced or obtained commercially. Assays were performed using 96-well plates and appropriate assay buffers (typically 25 mM β-glycerophosphate, 20 mM MOPS, 5 MM EGTA, 1 mM DTT, 1 mM Na3VO3, pH 7.4), into which were added 2-4 μg of active enzyme with appropriate substrates. The reactions were initiated by addition of Mg/ATP mix (15 mM MgCl2+100 μM ATP with 30-50 kBq per well of [γ-^32P]-ATP) and mixtures incubated as required at 30° C. Reactions were stopped on ice, followed by filtration through p81 filterplates or GF/C filterplates (Whatman Polyfiltronics, Kent, UK). After washing 3 times with 75 mM aq orthophosphoric acid, plates were dried, scintillant added and incorporated radioactivity measured in a scintillation counter (TopCount, Packard Instruments, Pangbourne, Berks, UK). Compounds for kinase assay were made up as 10 mM stocks in DMSO and diluted into 10% DMSO in assay buffer.

[1] = tested on: transformed human cell lines (A549, HT29, Saos-2); test: 72-h MTT cytotoxicity assay, average of cell lines; format: cell-based; conditions: read-out: 72-h MTT IC50 Average, average of A549, HT29, Saos-2
Procedure, shortened: as §1

GSK3β = GSK3β (Homo sapiens, UniProt P49841); test: Kinase assay, radioactive phosphate incorporation, GSK3β; format: biochemical; conditions: 100 μM ATP, 30° C.; read-out: Kinase inhibition IC50 GSK3β
Chain of GSK3β (P49841 whole entry, species assumed): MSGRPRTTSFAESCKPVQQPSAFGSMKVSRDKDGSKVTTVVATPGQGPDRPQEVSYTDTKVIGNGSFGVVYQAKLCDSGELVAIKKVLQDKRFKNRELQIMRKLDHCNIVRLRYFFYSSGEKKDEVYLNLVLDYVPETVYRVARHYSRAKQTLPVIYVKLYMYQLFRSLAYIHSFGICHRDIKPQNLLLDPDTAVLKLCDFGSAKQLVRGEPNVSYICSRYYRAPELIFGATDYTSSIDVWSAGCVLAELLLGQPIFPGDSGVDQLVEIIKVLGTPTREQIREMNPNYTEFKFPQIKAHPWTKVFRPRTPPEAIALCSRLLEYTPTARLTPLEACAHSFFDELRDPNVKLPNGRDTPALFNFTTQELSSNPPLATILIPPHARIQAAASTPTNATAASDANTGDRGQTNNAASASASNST
Procedure, shortened: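 Steps: enzyme (2-4 μg) plus substrate in pH 7.4 buffer with DTT and vanadate; start with 100 μM ATP/15 mM MgCl2 containing [γ-32P]-ATP; incubate at 30° C; stop on ice; filter, wash with 75 mM orthophosphoric acid; scintillation count. Compounds diluted from DMSO stocks into 10% DMSO buffer.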

CDK7/cyclin H = CDK7/cyclin H (Homo sapiens, UniProt P50613); test: Kinase assay, radioactive phosphate incorporation, CDK7/cyclin H; format: biochemical; conditions: 100 μM ATP, 30° C.; read-out: Kinase inhibition IC50 CDK7/cyclin H
Chain of CDK7/cyclin H (P50613 whole entry, species assumed): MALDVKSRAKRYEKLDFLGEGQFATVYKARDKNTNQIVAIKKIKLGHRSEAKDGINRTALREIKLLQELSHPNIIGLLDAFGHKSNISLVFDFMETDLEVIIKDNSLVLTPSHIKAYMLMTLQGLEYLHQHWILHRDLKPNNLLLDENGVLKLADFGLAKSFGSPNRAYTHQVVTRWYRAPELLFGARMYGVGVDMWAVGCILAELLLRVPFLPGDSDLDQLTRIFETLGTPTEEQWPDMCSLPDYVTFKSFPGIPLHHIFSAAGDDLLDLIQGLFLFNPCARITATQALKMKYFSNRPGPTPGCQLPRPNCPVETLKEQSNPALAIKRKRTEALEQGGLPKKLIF
Chain of CDK7/cyclin H (P51946 whole entry partner, species assumed): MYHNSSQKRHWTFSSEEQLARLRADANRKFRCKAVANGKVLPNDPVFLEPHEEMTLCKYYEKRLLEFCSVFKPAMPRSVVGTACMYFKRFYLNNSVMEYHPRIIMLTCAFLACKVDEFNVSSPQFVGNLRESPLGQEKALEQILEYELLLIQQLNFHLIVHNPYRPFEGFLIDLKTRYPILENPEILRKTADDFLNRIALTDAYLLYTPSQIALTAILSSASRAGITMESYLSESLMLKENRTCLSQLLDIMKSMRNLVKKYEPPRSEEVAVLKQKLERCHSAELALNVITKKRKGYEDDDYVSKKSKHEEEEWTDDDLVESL
Procedure, shortened: as §2

CDK4/cyclin D1 = CDK4/cyclin D1 (Homo sapiens, UniProt P11802); test: Kinase assay, radioactive phosphate incorporation, CDK4/cyclin D1; format: biochemical; conditions: 100 μM ATP, 30° C.; read-out: Kinase inhibition IC50 CDK4/cyclin D1
Chain of CDK4/cyclin D1 (P11802 whole entry, species assumed): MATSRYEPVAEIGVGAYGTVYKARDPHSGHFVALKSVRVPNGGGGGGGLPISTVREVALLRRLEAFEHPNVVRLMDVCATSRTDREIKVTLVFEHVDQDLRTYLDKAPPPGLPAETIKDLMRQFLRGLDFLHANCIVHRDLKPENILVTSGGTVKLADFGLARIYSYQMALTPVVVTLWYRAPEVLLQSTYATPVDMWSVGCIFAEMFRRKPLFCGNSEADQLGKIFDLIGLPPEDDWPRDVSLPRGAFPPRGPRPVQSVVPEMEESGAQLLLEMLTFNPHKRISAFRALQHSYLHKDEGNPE
Chain of CDK4/cyclin D1 (P24385 whole entry partner, species assumed): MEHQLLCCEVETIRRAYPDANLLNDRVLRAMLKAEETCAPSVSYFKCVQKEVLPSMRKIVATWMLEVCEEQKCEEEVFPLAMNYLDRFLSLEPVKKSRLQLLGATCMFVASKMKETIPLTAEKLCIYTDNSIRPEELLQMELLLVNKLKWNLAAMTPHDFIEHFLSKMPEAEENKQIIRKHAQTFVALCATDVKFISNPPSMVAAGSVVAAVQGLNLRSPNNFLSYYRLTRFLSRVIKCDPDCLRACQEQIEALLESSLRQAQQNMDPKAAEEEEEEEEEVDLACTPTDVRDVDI
Procedure: as §3

A549 = test: 72-h MTT cytotoxicity assay, A549; format: cell-based; conditions: Homo sapiens, read-out: 72-h MTT IC50 A549, A549 cell line
Procedure, shortened: as §1

CDK9/cyclin T1 = CDK9/cyclin T1 (Homo sapiens, UniProt P50750); test: Kinase assay, radioactive phosphate incorporation, CDK9/cyclin T1; format: biochemical; conditions: 100 μM ATP, 30° C.; read-out: Kinase inhibition IC50 CDK9/cyclin T1
Chain of CDK9/cyclin T1 (P50750 whole entry, species assumed): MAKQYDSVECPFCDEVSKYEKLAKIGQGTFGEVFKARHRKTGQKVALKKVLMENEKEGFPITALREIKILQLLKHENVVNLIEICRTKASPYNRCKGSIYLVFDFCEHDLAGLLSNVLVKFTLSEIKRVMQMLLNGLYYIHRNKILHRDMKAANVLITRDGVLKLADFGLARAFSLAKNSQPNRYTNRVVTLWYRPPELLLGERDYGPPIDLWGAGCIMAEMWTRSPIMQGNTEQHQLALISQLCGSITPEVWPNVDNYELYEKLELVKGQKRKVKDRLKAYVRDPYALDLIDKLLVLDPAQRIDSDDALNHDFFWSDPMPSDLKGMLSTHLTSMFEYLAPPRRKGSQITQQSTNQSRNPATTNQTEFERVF
Chain of CDK9/cyclin T1 (O60563 whole entry partner, species assumed): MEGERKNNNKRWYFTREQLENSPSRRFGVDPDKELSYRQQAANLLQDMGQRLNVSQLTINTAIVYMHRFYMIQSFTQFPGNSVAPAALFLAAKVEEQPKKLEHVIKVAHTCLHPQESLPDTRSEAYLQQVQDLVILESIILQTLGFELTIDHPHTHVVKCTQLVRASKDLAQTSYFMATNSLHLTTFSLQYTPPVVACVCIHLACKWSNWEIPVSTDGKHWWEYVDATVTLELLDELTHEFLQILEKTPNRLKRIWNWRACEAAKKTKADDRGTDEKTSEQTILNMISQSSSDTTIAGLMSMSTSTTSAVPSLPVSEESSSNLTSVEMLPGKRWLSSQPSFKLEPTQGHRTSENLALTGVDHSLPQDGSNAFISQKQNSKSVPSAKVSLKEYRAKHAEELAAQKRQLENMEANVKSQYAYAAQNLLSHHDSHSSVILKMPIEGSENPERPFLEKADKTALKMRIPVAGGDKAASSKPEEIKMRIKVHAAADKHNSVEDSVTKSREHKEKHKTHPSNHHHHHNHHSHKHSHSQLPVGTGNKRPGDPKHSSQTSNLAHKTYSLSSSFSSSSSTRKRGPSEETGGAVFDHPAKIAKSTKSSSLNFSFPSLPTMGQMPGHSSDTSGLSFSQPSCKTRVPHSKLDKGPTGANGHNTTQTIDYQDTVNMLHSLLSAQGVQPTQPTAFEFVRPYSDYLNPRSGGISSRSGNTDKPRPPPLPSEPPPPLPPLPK
Procedure, shortened: as §2

Saos-2 = test: 72-h MTT cytotoxicity assay, Saos-2; format: cell-based; conditions: Homo sapiens, read-out: 72-h MTT IC50 Saos-2, Saos-2 cell line
Procedure, shortened: as §1

CDK2/cyclin A = CDK2/cyclin A (Homo sapiens, UniProt P24941); test: Kinase assay, radioactive phosphate incorporation, CDK2/cyclin A; format: biochemical; conditions: 100 μM ATP, 30° C.; read-out: Kinase inhibition IC50 CDK2/cyclin A
Procedure: as §3

Aurora-A = biological target: T1, Aurora-A (Homo sapiens, UniProt O14965); test: Kinase assay, radioactive phosphate incorporation, Aurora-A; format: biochemical; conditions: 100 μM ATP, 30° C.; read-out: Kinase inhibition IC50 Aurora-A
T1 sequence (O14965 1-403): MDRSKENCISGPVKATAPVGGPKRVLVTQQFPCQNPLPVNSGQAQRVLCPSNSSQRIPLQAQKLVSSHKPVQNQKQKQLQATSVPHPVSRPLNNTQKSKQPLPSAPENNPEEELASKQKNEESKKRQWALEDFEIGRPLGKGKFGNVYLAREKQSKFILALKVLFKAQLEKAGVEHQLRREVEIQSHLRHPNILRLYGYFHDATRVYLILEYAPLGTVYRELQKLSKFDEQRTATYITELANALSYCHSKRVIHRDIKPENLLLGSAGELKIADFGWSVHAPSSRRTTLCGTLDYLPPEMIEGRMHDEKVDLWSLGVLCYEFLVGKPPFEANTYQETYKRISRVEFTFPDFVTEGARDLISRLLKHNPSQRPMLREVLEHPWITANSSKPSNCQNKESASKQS
Procedure: as §3

Compound | IC50 (CDK2/cyclin E) [nM] | IC50 (CDK1/cyclin B) [nM] | IC50 (GSK3β) [nM] | IC50 (CDK7/cyclin H) [nM] | IC50 (CDK4/cyclin D1) [nM] | IC50 (CDK9/cyclin T1) [nM] | IC50 (CDK2/cyclin A) [nM] | IC50 (Aurora-A) [nM] | IC50 (HT29) [nM] | IC50 [1] [nM] | IC50 (A549) [nM] | IC50 (Saos-2) [nM]
CCN(Cc1cccc(-c2ccnc(Nc3ccc(OC)nc3)n2)c1)C(C)C [Compound 53, (4-{3-[(Ethyl-isopropyl-amino)-methyl]-phenyl}-pyrimidin-2-yl)-(6-methoxy-pyridin-3-yl)-amine] | 350 | 3900 | 51 | 2500 | 1100 | 28 | 3400 | – | 850 | 2100 ± 1200 | 2200 | 3200
O=[N+]([O-])c1cccc(Nc2nccc(-c3cccc(CN4CCCCC4CO)c3)n2)c1 (stereo not shown) [Compound 79, (1-{3-[2-(3-Nitro-phenylamino)-pyrimidin-4-yl]-benzyl}-piperidin-2-yl)-methanol] | < 1 | 150 | 20 | 50 | 540 | 10 | 150 | – | 200 | 400 ± 200 | 330 | 620
O=[N+]([O-])c1cccc(Nc2nccc(-c3cccc(CN4CCCC4CNc4ccccc4)c3)n2)c1 (stereo not shown) [Compound 86, (3-Nitro-phenyl)-{4-[3-(2-phenylaminomethyl-pyrrolidin-1-ylmethyl)-phenyl]-pyrimidin-2-yl}-amine] | 810 | – | 160 | 670 | – | 130 | – | 2400 | 8900 | 38000 ± 25400 | 49300 | 55800
O=[N+]([O-])c1cccc(Nc2nccc(-c3cccc(CN4CCCC(CCO)C4)c3)n2)c1 (stereo not shown) [Compound 100, 2-(1-{3-[2-(3-Nitro-phenylamino)-pyrimidin-4-yl]-benzyl}-piperidin-3-yl)-ethanol] | 60 | 1200 | 20 | 70 | 3400 | 2 | 580 | – | 640 | 800 ± 400 | 560 | 1300
CS(=O)(=O)c1cccc(Nc2nccc(-c3cccc(Cn4cncn4)c3)n2)c1 [Compound 104, (3-Methanesulfonyl-phenyl)-[4-(3-[1,2,4]triazol-1-ylmethyl-phenyl)-pyrimidin-2-yl]-amine] | – | – | 280 | 6400 | – | 60 | – | 1500 | – | – | – | –
CCOc1ccc(-c2ccnc(Nc3cccc(O)c3)n2)cc1 [Compound 109, 3-[4-(4-Ethoxy-phenyl)-pyrimidin-2-ylamino]-phenol] | – | – | – | – | – | 140 | 2000 | 700 | – | – | – | –
COc1ccc(-c2ccnc(Nc3ccc(N4CCOCC4)cc3)n2)cc1 [Compound 111, [4-(4-Methoxy-phenyl)-pyrimidin-2-yl]-(4-morpholin-4-yl-phenyl)-amine] | – | – | – | – | – | – | – | 520 | – | – | – | –
O=[N+]([O-])c1cccc(Nc2nccc(-c3cccc(Cl)c3)n2)c1 [Compound 112, [4-(3-Chloro-phenyl)-pyrimidin-2-yl]-(3-nitro-phenyl)-amine] | – | – | 160 | – | – | 70 | – | 2600 | – | – | – | –
Oc1cccc(Nc2nccc(-c3cc(F)ccc3F)n2)c1 [Compound 114, 3-[4-(2,5-Difluoro-phenyl)-pyrimidin-2-ylamino]-phenol] | – | – | – | – | – | 120 | – | 160 | – | – | – | –
Oc1ccc(Nc2nccc(-c3cccc(O)c3)n2)cc1 [Compound 122, 3-[2-(4-Hydroxy-phenylamino)-pyrimidin-4-yl]-phenol] | – | – | – | – | – | 190 | – | 6 | – | – | – | –
O=[N+]([O-])c1cccc(Nc2nccc(-c3ccc(CCn4cncn4)cc3)n2)c1 [Compound 126, (3-Nitro-phenyl)-{4-[4-(2-[1,2,4]triazol-1-yl-ethyl)-phenyl]-pyrimidin-2-yl}-amine] | – | – | 10 | – | – | 90 | – | 340 | – | – | – | –
COc1ccc(Nc2nccc(-c3cccc(N(C)S(C)(=O)=O)c3)n2)cn1 [Compound 132, N-{3-[2-(6-Methoxy-pyridin-3-ylamino)-pyrimidin-4-yl]-phenyl}-N-methyl-methanesulfonamide] | – | – | 170 | 3900 | 2100 | 60 | – | 390 | – | – | – | –

The next lines start with results.

IC50 (CDK2/cyclin E) [nM] | IC50 (CDK1/cyclin B) [nM] | IC50 (GSK3β) [nM] | IC50 (CDK7/cyclin H) [nM] | IC50 (CDK4/cyclin D1) [nM] | IC50 (CDK9/cyclin T1) [nM] | IC50 (CDK2/cyclin A) [nM] | IC50 (Aurora-A) [nM] | Compound | IC50 (HT29) [nM] | IC50 [1] [nM] | IC50 (A549) [nM] | IC50 (Saos-2) [nM]
300 | 2000 | 320 | 130 | 4500 | 22 | 820 | – | CN1CCN(Cc2cccc(-c3ccnc(Nc4cccc([N+](=O)[O-])c4)n3)c2)CC1 [Compound 54, {4-[3-(4-Methyl-piperazin-1-ylmethyl)-phenyl]-pyrimidin-2-yl}-(3-nitro-phenyl)-amine] | 770 | 1100 ± 300 | 1100 | 1300
– | – | – | – | – | 90 | – | 990 | Oc1cccc(Nc2nccc(-c3cccc(C(F)(F)F)c3)n2)c1 [Compound 95, 3-[4-(3-trifluoromethyl-phenyl)-pyrimidin-2-ylamino]-phenol] | – | – | – | –
– | – | – | – | – | 80 | – | 20 | Oc1ccc(Nc2nccc(-c3cccc(C(F)(F)F)c3)n2)cc1 [Compound 96, 4-[4-(3-trifluoromethyl-phenyl)-pyrimidin-2-ylamino]-phenol] | – | – | – | –
– | – | – | – | – | 150 | – | 140 | Oc1ccc(Nc2nccc(-c3cccc(F)c3)n2)cc1 [Compound 113, 4-[4-(3-Fluoro-phenyl)-pyrimidin-2-ylamino]-phenol] | – | – | – | –
– | – | 70 | 3100 | – | 40 | 2000 | 720 | OCc1cccc(-c2ccnc(Nc3cccc(O)c3)n2)c1 [Compound 115, 3-[4-(3-Hydroxymethyl-phenyl)-pyrimidin-2-ylamino]-phenol] | – | – | – | –
– | – | – | – | – | 50 | – | 630 | OCc1cccc(-c2ccnc(Nc3cccc(F)c3)n2)c1 [Compound 116, {3-[2-(3-Fluoro-phenylamino)-pyrimidin-4-yl]-phenyl}-methanol] | – | – | – | –
– | – | – | – | – | 20 | – | 1800 | COc1cccc(-c2ccnc(Nc3cccc(F)c3)n2)c1 [Compound 118, (3-Fluoro-phenyl)-[4-(3-methoxy-phenyl)-pyrimidin-2-yl]-amine] | – | – | – | –
– | – | 40 | 5900 | – | 120 | – | 960 | COc1ccc(Nc2nccc(-c3cccc(CO)c3)n2)cn1 [Compound 125, {3-[2-(6-Methoxy-pyridin-3-ylamino)-pyrimidin-4-yl]-phenyl}-methanol] | – | – | – | –
– | – | – | – | – | 900 | – | 1100 | O=[N+]([O-])c1cccc(Nc2nccc(-c3ccc(CN4CCCCC4CO)cc3)n2)c1 (stereo not shown) [Compound 127, (1-{4-[2-(3-Nitro-phenylamino)-pyrimidin-4-yl]-benzyl}-piperidin-2-yl)-methanol] | – | – | – | –
